{
  "source": "patent US11214594B2",
  "about": "“Antimicrobial peptide having synergistic antibacterial effect with antibiotics on multidrug resistant bacteria, and use thereof” (priority 2016, dated 2022)",
  "key": {"MDRAB 12035": {"test_system": "MDRAB 12035", "experiment": "MIC of antibiotic during combined treatment with antimicrobial peptide", "type": "cell-based, Acinetobacter baumannii", "how_it_was_run": "(§1)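 Broth microdilution in MH medium; strains were diluted to 2×10^6 CFU per ml before plating. Peptide was serially diluted stepwise at 2:1 starting from its MIC, and MH-diluted antibiotic was then added to determine MIC. The reversed arrangement was also tested.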"}, "E. coli": {"test_system": "E. coli", "type": "cell-based, Escherichia coli", "conditions": "E. coli", "how_it_was_run": "as §1"}, "MDREC 1229": {"test_system": "MDREC 1229", "type": "cell-based, Escherichia coli", "how_it_was_run": "as §1"}, "A. baumannii": {"test_system": "A. baumannii", "experiment": "MIC of antibiotic during combined treatment with antimicrobial peptide", "type": "cell-based, Acinetobacter baumannii", "conditions": "A. baumannii", "how_it_was_run": "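Using MH broth, we determined combination MICs by titrating the antibiotic into wells and then repeating under the reverse dilution scheme.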"}, "[1]": {"conditions": "peptide treatment concentration 2 μg/ml"}, "[2]": {"conditions": "peptide treatment concentration 4 μg/ml"}, "[3]": {"conditions": "peptide treatment concentration 6 μg/ml"}, "[4]": {"conditions": "peptide treatment concentration 8 μg/ml"}, "[5]": {"conditions": "peptide treatment concentration 16 μg/ml"}, "[6]": {"conditions": "peptide treatment concentration 32 μg/ml"}, "[7]": {"conditions": "peptide treatment concentration 64 μg/ml"}, "[8]": {"conditions": "combined with peptide at 1 μg/ml"}, "[9]": {"conditions": "combined with peptide at 2 μg/ml"}, "[10]": {"conditions": "combined with peptide at 4 μg/ml"}, "[11]": {"conditions": "combined with peptide at 6 μg/ml"}, "[12]": {"conditions": "combined with peptide at 8 μg/ml"}, "[13]": {"conditions": "combined with peptide at 16 μg/ml"}, "[14]": {"conditions": "combined with peptide at 32 μg/ml"}, "[15]": {"conditions": "combined with peptide at 64 μg/ml"}},
  "note": "Like-named read-outs stand apart in the source and are kept apart here. Where a SMILES comes first, the peptide text is derived from it. [ ]: non-standard residue; d: D form.",
  "data": [
    {"compound": "CC[C@H](C)[C@H](NC(=O)[C@H](CCCCN)NC(=O)[C@H](Cc1c[nH]c2ccccc12)NC(=O)[C@@H](N)CCCNC(=N)N)C(=O)N[C@@H](Cc1ccccc1)C(=O)N[C@@H](CCCCN)C(=O)N[C@@H](CCCCN)C(=O)N[C@H](C(=O)N[C@H](CCCCN)C(=O)N[C@@H](CCCCN)C(=O)N[C@@H](CC(C)C)C(=O)N[C@@H](CC(C)C)C(=O)N[C@@H](Cc1c[nH]cn1)C(=O)N[C@@H](CO)C(=O)N[C@@H](Cc1ccccc1)C(=O)N[C@@H](CCCCN)C(=O)N[C@@H](CCCCN)C(=O)N[C@@H](Cc1ccccc1)C(N)=O)[C@@H](C)CC", "note": "[PapMA-15, RWK IFK KIk KLL HSF KKF-NH2] (H-RWKIFKKI[dK]KLLHSFKKF-NH2; N-terminus assumed)", "values": [
      {"measurement": "Erythromycin MIC during combined treatment with peptide", "setting": "MDRAB 12035; [1]", "value": 32, "unit": "µg/mL"},
      {"measurement": "Linezolid MIC during combined treatment with peptide", "setting": "MDRAB 12035; [1]", "value": ">128", "unit": "µg/mL"},
      {"measurement": "Vancomycin MIC during combined treatment with peptide", "setting": "MDRAB 12035; [1]", "value": ">128", "unit": "µg/mL"},
      {"measurement": "Erythromycin MIC during combined treatment with peptide", "setting": "MDRAB 12035; [2]", "value": 16, "unit": "µg/mL"},
      {"measurement": "Linezolid MIC during combined treatment with peptide", "setting": "MDRAB 12035; [2]", "value": 64, "unit": "µg/mL"},
      {"measurement": "Vancomycin MIC during combined treatment with peptide", "setting": "MDRAB 12035; [2]", "value": 128, "unit": "µg/mL"},
      {"measurement": "Erythromycin MIC during combined treatment with peptide", "setting": "MDRAB 12035; [3]", "value": 2, "unit": "µg/mL"},
      {"measurement": "Linezolid MIC during combined treatment with peptide", "setting": "MDRAB 12035; [3]", "value": 64, "unit": "µg/mL"},
      {"measurement": "Vancomycin MIC during combined treatment with peptide", "setting": "MDRAB 12035; [3]", "value": 32, "unit": "µg/mL"},
      {"measurement": "Erythromycin MIC during combined treatment with peptide", "setting": "MDRAB 12035; [4]", "value": 1, "unit": "µg/mL"},
      {"measurement": "Linezolid MIC during combined treatment with peptide", "setting": "MDRAB 12035; [4]", "value": 32, "unit": "µg/mL"},
      {"measurement": "Vancomycin MIC during combined treatment with peptide", "setting": "MDRAB 12035; [4]", "value": 32, "unit": "µg/mL"},
      {"measurement": "Erythromycin MIC during combined treatment with peptide", "setting": "MDRAB 12035; [5]", "value": 0.25, "unit": "µg/mL"},
      {"measurement": "Linezolid MIC during combined treatment with peptide", "setting": "MDRAB 12035; [5]", "value": 4, "unit": "µg/mL"},
      {"measurement": "Vancomycin MIC during combined treatment with peptide", "setting": "MDRAB 12035; [5]", "value": 16, "unit": "µg/mL"},
      {"measurement": "Erythromycin MIC during combined treatment with peptide", "setting": "MDRAB 12035; [6]", "value": 0, "unit": "µg/mL"},
      {"measurement": "Linezolid MIC during combined treatment with peptide", "setting": "MDRAB 12035; [6]", "value": 0, "unit": "µg/mL"},
      {"measurement": "Vancomycin MIC during combined treatment with peptide", "setting": "MDRAB 12035; [6]", "value": 0, "unit": "µg/mL"},
      {"measurement": "Erythromycin MIC during combined treatment with peptide", "setting": "MDRAB 12035; [7]", "value": 0, "unit": "µg/mL"},
      {"measurement": "Linezolid MIC during combined treatment with peptide", "setting": "MDRAB 12035; [7]", "value": 0, "unit": "µg/mL"},
      {"measurement": "Vancomycin MIC during combined treatment with peptide", "setting": "MDRAB 12035; [7]", "value": 0, "unit": "µg/mL"},
      {"measurement": "Peptide MIC", "setting": "E. coli; with Erythromycin […] (Conc./MIC 1)", "value": 0, "unit": "µg/mL"},
      {"measurement": "Peptide MIC", "setting": "E. coli; with Linezolid […] (Conc./MIC 1)", "value": 0, "unit": "µg/mL"},
      {"measurement": "Peptide MIC", "setting": "E. coli; with Vancomycin 1024 μg/ml (Conc./MIC 1)", "value": 0, "unit": "µg/mL"},
      {"measurement": "Peptide MIC during treatment with antibiotic", "setting": "MDREC 1229; erythromycin 32 μg/ml (Conc./MIC 1/8)", "value": 2, "unit": "µg/mL"},
      {"measurement": "Peptide MIC during treatment with antibiotic", "setting": "MDREC 1229; erythromycin 64 μg/ml (Conc./MIC 1/4)", "value": 2, "unit": "µg/mL"},
      {"measurement": "Peptide MIC during treatment with antibiotic", "setting": "MDREC 1229; erythromycin […] (Conc./MIC 1)", "value": 0, "unit": "µg/mL"},
      {"measurement": "Peptide MIC during treatment with antibiotic", "setting": "MDREC 1229; erythromycin […] (Conc./MIC 1/2)", "value": 2, "unit": "µg/mL"},
      {"measurement": "Peptide MIC during treatment with antibiotic", "setting": "MDREC 1229; linezolid 64 μg/ml (Conc./MIC 1/8)", "value": 4, "unit": "µg/mL"},
      {"measurement": "Peptide MIC during treatment with antibiotic", "setting": "MDREC 1229; linezolid 512 μg/ml (Conc./MIC 1)", "value": 0, "unit": "µg/mL"},
      {"measurement": "Peptide MIC during treatment with antibiotic", "setting": "MDREC 1229; linezolid […] (Conc./MIC 1/2)", "value": 1, "unit": "µg/mL"},
      {"measurement": "Peptide MIC during treatment with antibiotic", "setting": "MDREC 1229; linezolid […] (Conc./MIC 1/4)", "value": 2, "unit": "µg/mL"},
      {"measurement": "Peptide MIC during treatment with antibiotic", "setting": "MDREC 1229; vancomycin 512 μg/ml (Conc./MIC 1/2)", "value": 2, "unit": "µg/mL"},
      {"measurement": "Peptide MIC during treatment with antibiotic", "setting": "MDREC 1229; vancomycin 1024 μg/ml (Conc./MIC 1)", "value": 1, "unit": "µg/mL"},
      {"measurement": "Peptide MIC during treatment with antibiotic", "setting": "MDREC 1229; vancomycin […] (Conc./MIC 1/4)", "value": 4, "unit": "µg/mL"},
      {"measurement": "Peptide MIC during treatment with antibiotic", "setting": "MDREC 1229; vancomycin […] (Conc./MIC 1/8)", "value": 8, "unit": "µg/mL"},
      {"measurement": "Antibiotic MIC, Erythromycin", "setting": "A. baumannii; [8]", "value": 32, "unit": "µg/mL"},
      {"measurement": "Antibiotic MIC, Linezolid", "setting": "A. baumannii; [8]", "value": ">128", "unit": "µg/mL"},
      {"measurement": "Antibiotic MIC, Vancomycin", "setting": "A. baumannii; [8]", "value": ">128", "unit": "µg/mL"},
      {"measurement": "Antibiotic MIC, Erythromycin", "setting": "A. baumannii; [9]", "value": 32, "unit": "µg/mL"},
      {"measurement": "Antibiotic MIC, Linezolid", "setting": "A. baumannii; [9]", "value": 128, "unit": "µg/mL"},
      {"measurement": "Antibiotic MIC, Vancomycin", "setting": "A. baumannii; [9]", "value": 128, "unit": "µg/mL"},
      {"measurement": "Antibiotic MIC, Erythromycin", "setting": "A. baumannii; [10]", "value": 16, "unit": "µg/mL"},
      {"measurement": "Antibiotic MIC, Linezolid", "setting": "A. baumannii; [10]", "value": 64, "unit": "µg/mL"},
      {"measurement": "Antibiotic MIC, Vancomycin", "setting": "A. baumannii; [10]", "value": 32, "unit": "µg/mL"},
      {"measurement": "Antibiotic MIC, Erythromycin", "setting": "A. baumannii; [11]", "value": 2, "unit": "µg/mL"},
      {"measurement": "Antibiotic MIC, Linezolid", "setting": "A. baumannii; [11]", "value": 32, "unit": "µg/mL"},
      {"measurement": "Antibiotic MIC, Vancomycin", "setting": "A. baumannii; [11]", "value": 16, "unit": "µg/mL"},
      {"measurement": "Antibiotic MIC, Erythromycin", "setting": "A. baumannii; [12]", "value": 0.5, "unit": "µg/mL"},
      {"measurement": "Antibiotic MIC, Linezolid", "setting": "A. baumannii; [12]", "value": 16, "unit": "µg/mL"},
      {"measurement": "Antibiotic MIC, Vancomycin", "setting": "A. baumannii; [12]", "value": 16, "unit": "µg/mL"},
      {"measurement": "Antibiotic MIC, Erythromycin", "setting": "A. baumannii; [13]", "value": 0.25, "unit": "µg/mL"},
      {"measurement": "Antibiotic MIC, Linezolid", "setting": "A. baumannii; [13]", "value": 2, "unit": "µg/mL"},
      {"measurement": "Antibiotic MIC, Vancomycin", "setting": "A. baumannii; [13]", "value": 8, "unit": "µg/mL"},
      {"measurement": "Antibiotic MIC, Erythromycin", "setting": "A. baumannii; [14]", "value": 0, "unit": "µg/mL"},
      {"measurement": "Antibiotic MIC, Linezolid", "setting": "A. baumannii; [14]", "value": 0, "unit": "µg/mL"},
      {"measurement": "Antibiotic MIC, Vancomycin", "setting": "A. baumannii; [14]", "value": 0, "unit": "µg/mL"},
      {"measurement": "Antibiotic MIC, Erythromycin", "setting": "A. baumannii; [15]", "value": 0, "unit": "µg/mL"},
      {"measurement": "Antibiotic MIC, Linezolid", "setting": "A. baumannii; [15]", "value": 0, "unit": "µg/mL"},
      {"measurement": "Antibiotic MIC, Vancomycin", "setting": "A. baumannii; [15]", "value": 0, "unit": "µg/mL"}
    ]}
  ]
}
